Test system: children undergoing tonsillectomy
Assay: Analgesic effectiveness outcomes by sex and morphine dose (Example 6)
[1] = F, intra-op morphine >0.2 mg/kg
[2] = F, intra-op morphine >0.1-0.2 mg/kg
[3] = F, intra-op morphine ≤0.1 mg/kg
[4] = M, intra-op morphine >0.2 mg/kg
[5] = M, intra-op morphine >0.1-0.2 mg/kg
[6] = M, intra-op morphine ≤0.1 mg/kg

## CN1CC[C@]23c4c5ccc(O)c4O[C@H]2[C@@H](O)C=C[C@H]3[C@H]1C5 [morphine]
F, All
  Analgesic intervention need in PACU, number of cases: 67
  Analgesic intervention need in PACU, proportion: (31%)
  Maximum FLACC pain score, median: 2
  Maximum NRS pain score, median: 6
  Number of analgesic interventions, median: 1
  Post-operative morphine, mean ± SD: 0.09 ± 0.05 mg/kg
  Prolonged PACU stay due to pain, number of cases: 37
  Prolonged PACU stay due to pain, proportion: (17%)
F, OSA No
  Analgesic intervention need in PACU, number of cases: 35
  Analgesic intervention need in PACU, proportion: (28%)
  Maximum FLACC pain score, median: 2
  Maximum NRS pain score, median: 6
  Number of analgesic interventions, median: 1
  Post-operative morphine, mean ± SD: 0.08 ± 0.04 mg/kg
  Prolonged PACU stay due to pain, number of cases: 21
  Prolonged PACU stay due to pain, proportion: (17%)
F, OSA Yes
  Analgesic intervention need in PACU, number of cases: 32
  Analgesic intervention need in PACU, proportion: (34%)
  Maximum FLACC pain score, median: 2
  Maximum NRS pain score, median: 5
  Number of analgesic interventions, median: 1
  Post-operative morphine, mean ± SD: 0.09 ± 0.06 mg/kg
  Prolonged PACU stay due to pain, number of cases: 16
  Prolonged PACU stay due to pain, proportion: (17%)
[1]
  Analgesic intervention need in PACU, number of cases (%): 22 (51)
  Maximum FLACC pain score, median (IQR): 1 (0-5)
  Maximum NRS pain score, median (IQR): 6 (3-9)
  Number of analgesic interventions, median (IQR): 1 (0-1)
  Post-operative morphine, mean ± SD: 0.10 ± 0.05 mg/Kf
  Prolonged PACU stay due to pain, number of cases (%): 12 (28)
[2]
  Analgesic intervention need in PACU, number of cases (%): 40 (61)
  Maximum FLACC pain score, median (IQR): 2 (0-5)
  Maximum NRS pain score, median (IQR): 5 (2-8)
  Number of analgesic interventions, median (IQR): 1 (0-1)
  Post-operative morphine, mean ± SD: 0.09 ± 0.05 mg/Kf
  Prolonged PACU stay due to pain, number of cases (%): 22 (33)
[3]
  Analgesic intervention need in PACU, number of cases (%): 5 (100)
  Maximum FLACC pain score, median (IQR): 3 (3-4)
  Maximum NRS pain score, median (IQR): 8 (6-10)
  Number of analgesic interventions, median (IQR): 1 (1-2)
  Post-operative morphine, mean ± SD: 0.07 ± 0.03 mg/Kf
  Prolonged PACU stay due to pain, number of cases (%): 3 (60)
M, All
  Analgesic intervention need in PACU, number of cases: 61
  Analgesic intervention need in PACU, proportion: (28%)
  Maximum FLACC pain score, median: 2
  Maximum NRS pain score, median: 5
  Number of analgesic interventions, median: 1
  Post-operative morphine, mean ± SD: 0.09 ± 0.05 mg/kg
  Prolonged PACU stay due to pain, number of cases: 36
  Prolonged PACU stay due to pain, proportion: (16%)
M, OSA No
  Analgesic intervention need in PACU, number of cases: 35
  Analgesic intervention need in PACU, proportion: (28%)
  Maximum FLACC pain score, median: 2
  Maximum NRS pain score, median: 6
  Number of analgesic interventions, median: 1
  Post-operative morphine, mean ± SD: 0.09 ± 0.05 mg/kg
  Prolonged PACU stay due to pain, number of cases: 24
  Prolonged PACU stay due to pain, proportion: (19%)
M, OSA Yes
  Analgesic intervention need in PACU, number of cases: 26
  Analgesic intervention need in PACU, proportion: (27%)
  Maximum FLACC pain score, median: 4
  Maximum NRS pain score, median: 5
  Number of analgesic interventions, median: 1
  Post-operative morphine, mean ± SD: 0.09 ± 0.05 mg/kg
  Prolonged PACU stay due to pain, number of cases: 12
  Prolonged PACU stay due to pain, proportion: (13%)
[4]
  Analgesic intervention need in PACU, number of cases (%): 20 (54)
  Maximum FLACC pain score, median (IQR): 2 (0-5)
  Maximum NRS pain score, median (IQR): 6 (4-7)
  Number of analgesic interventions, median (IQR): 1 (0-1)
  Post-operative morphine, mean ± SD: 0.09 ± 0.05 mg/Kf
  Prolonged PACU stay due to pain, number of cases (%): 12 (32)
[5]
  Analgesic intervention need in PACU, number of cases (%): 36 (58)
  Maximum FLACC pain score, median (IQR): 3 (1-7)
  Maximum NRS pain score, median (IQR): 5 (2-8)
  Number of analgesic interventions, median (IQR): 1 (0-1)
  Post-operative morphine, mean ± SD: 0.10 ± 0.05 mg/Kf
  Prolonged PACU stay due to pain, number of cases (%): 22 (35)
[6]
  Analgesic intervention need in PACU, number of cases (%): 5 (83)
  Maximum FLACC pain score, median (IQR): 3 (1-5)
  Maximum NRS pain score, median (IQR): 6 (5-9)
  Number of analgesic interventions, median (IQR): 1 (1-2)
  Post-operative morphine, mean ± SD: 0.07 ± 0.04 mg/Kf
  Prolonged PACU stay due to pain, number of cases (%): 2 (33)
Univariate or multivariate modeling
  sex-specific morphine effects on analgesic outcomes: no evidence of sex-specific morphine effects

— patent publication US10878939B2, “Methods and compositions for personalized pain management” (Children's Hospital Medical Center, priority 2014, dated 2020)
